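Interpolation was linear, between the two tested concentrations surrounding the appropriate level; five concentrations were tested over 48 hours in 96-well plates. GI50 marks 50% less growth.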 Calls of active or inactive are those of the source. No stated cut-off is given here; in the data, active = GI50 up to about 1.1 µM and inactive = higher.
Columns and labels:
Test in all cases: NCI-60 cell line screen, 48 h
DLD-1 = system: DLD-1
DMS-114 = system: DMS-114
DMS-273 = system: DMS-273
HOP-18 = system: HOP-18
KM-20L2 = system: KM-20L2
LXFL 529 = system: LXFL 529
M19-MEL = system: M19-MEL
XF498 = system: XF498
RXF 631 = system: RXF 631

Measured: GI50

COc1ccc(OC)c2c1C(=O)C(Cl)=C(Cl)C2=O
inactive: DLD-1 3.84 µM | DMS-114 2.16 µM | DMS-273 7.57 µM | HOP-18 3.54 µM | KM-20L2 10.5 µM | LXFL 529 1.95 µM | M19-MEL 4.68 µM | XF498 1.61 µM

C=C1CCC2C(C)(CO)C(O)CCC2(C)C1C/C=C1/CCOC1=O (stereo unspecified)
inactive: DLD-1 > 100 µM | DMS-273 > 100 µM | HOP-18 > 100 µM | KM-20L2 > 100 µM | LXFL 529 > 100 µM | M19-MEL > 100 µM

COC(=O)C1Cc2c(n(C)c3ccccc23)C(c2ccccc2)N1 (stereo unspecified)
inactive: DLD-1 > 10 µM | DMS-114 21.8 µM | DMS-273 38.8 µM | HOP-18 > 100 µM | KM-20L2 57.8 µM | LXFL 529 33.7 µM | M19-MEL 45.6 µM | RXF 631 > 100 µM

CN(C)CCCNc1ccc2ncn3c4ccccc4c(=O)c1c23
inactive: DLD-1 4.94 µM | DMS-114 10.5 µM | HOP-18 5.73 µM | KM-20L2 7.41 µM | LXFL 529 8.55 µM | M19-MEL 12.1 µM | RXF 631 4.7 µM

O=C(CCN1CCCCC1)N1CCc2c([nH]c3ccccc23)C1c1cccnc1 (stereo unspecified)
inactive: DLD-1 48.4 µM | DMS-114 27.9 µM | DMS-273 39.8 µM | HOP-18 > 100 µM | KM-20L2 30.1 µM | LXFL 529 20.9 µM | M19-MEL 21.2 µM | RXF 631 31 µM | XF498 21.2 µM

Oc1ncnc2c1sc(=S)n2-c1ccccc1
inactive: DLD-1 > 100 µM | DMS-114 > 100 µM | DMS-273 > 100 µM | KM-20L2 > 100 µM | LXFL 529 > 100 µM | M19-MEL > 100 µM | XF498 > 100 µM

Cn1cnnc1Sc1c([N+](=O)[O-])nc(-c2ccc([N+](=O)[O-])cc2)n1C
inactive: DLD-1 15.3 µM | DMS-114 17.9 µM | DMS-273 17.4 µM | HOP-18 17.4 µM | LXFL 529 13.8 µM | M19-MEL 17.8 µM | RXF 631 17.7 µM | XF498 10.4 µM

O=c1c2ccccc2c(=O)c2c1cc(Cl)c1[nH]c3c([nH]c12)c(Cl)cc1c(=O)c2ccccc2c(=O)c13
inactive: DLD-1 > 100 µM | DMS-114 > 100 µM | DMS-273 > 100 µM | KM-20L2 > 100 µM | M19-MEL > 100 µM

C=C1CC[C@@H]2C(C)(C)CCC[C@@]2(C)[C@@H]1Cc1cc(O)ccc1O
inactive: DLD-1 5.21 µM | DMS-114 1.89 µM | DMS-273 5.92 µM | HOP-18 11.2 µM | KM-20L2 17.3 µM | LXFL 529 2.11 µM | M19-MEL 3.56 µM

CC1(C)CC2(S(=O)(=O)c3ccccc3)ON1CC2S(=O)(=O)c1ccccc1 (stereo unspecified)
inactive: DLD-1 > 100 µM | DMS-114 67.1 µM | DMS-273 53.6 µM | KM-20L2 > 100 µM | LXFL 529 76.9 µM | M19-MEL > 100 µM

CN(C)c1n/c(=N/c2ccc3c(c2)OCO3)ss1
inactive: DLD-1 79.8 µM | DMS-114 38.6 µM | DMS-273 66.5 µM | HOP-18 > 100 µM | KM-20L2 39.9 µM | LXFL 529 35.3 µM | M19-MEL > 100 µM | XF498 48.5 µM

Cc1cn2c(=O)c3ncn(C4OC(CO)C(O)C4O)c3n(C)c2n1 (stereo unspecified)
inactive: DLD-1 > 100 µM | DMS-114 > 100 µM | DMS-273 > 100 µM | HOP-18 > 100 µM | KM-20L2 > 100 µM | LXFL 529 > 100 µM | M19-MEL > 100 µM | RXF 631 > 100 µM

NS(=O)(=O)c1ccc(NC(=O)Cc2nc3ccccc3s2)cc1
inactive: DLD-1 15.5 µM | DMS-114 15.1 µM | DMS-273 18.7 µM | HOP-18 17.8 µM | KM-20L2 18.7 µM | LXFL 529 16.8 µM | M19-MEL 14.6 µM | RXF 631 16.4 µM | XF498 16.2 µM

— ChEMBL document CHEMBL1201862, “PubChem BioAssay data set” (2004)
